Test results from patent US12357650B2, “Methods and compositions for cancer therapies that include delivery of halogenated thymidines and thymidine phosphorlylase inhibitors in combination with radiation” (Shuttle Pharmaceuticals, Inc., priority 2017, dated 2025).
Several values for one entry are separate records, joined by “and”; a condition that tells them apart may be missing. Identical values can stand only once. Like-named read-outs stand apart in the source and are kept apart here.

Tests used:
[1] = Pharmacokinetic profile of IUdR (100 mg/kg) with and without Tipiracil in rats following single oral administration; type: in vivo, male Sprague-Dawley rats; details: single oral dose, Example 1, sub-heading prints PO-20 (Compound A) alone or + 7.9 (Compound B) mg/kg, individual animals
Experimental: (§1) The purpose of this study was to determine the pharmacokinetics parameters of IUdR in male Sprague-Dawley rats following single oral (PO) administration the IUdR (i.e., Compound A) and Tipiracil (i.e., Compound B).
A control formulation was prepared where Compound A was dissolved in 5% DMSO+95% PBS to yield a final concentration of 10 mg/mL for oral administration. The prepared formulation was white suspension (pH˜7).
A second formulation was prepared where Compound A and Compound B were dissolved in 5% DMSO+95% PBS to yield a final concentration of 10 mg/mL (Compound A) and 0.79 mg/mL (Compound B) for oral administration. The prepared formulation was white suspension (pH˜7).
(§2) Animal Acquisition and Assignment to Study. A total of 8 male experimental Sprague-Dawley Rats were transferred from stock colony, and 6 animals were placed on study.
(§3) Dose Administration. The test article was administered via a single oral administration.
(§4) Sample Collection and Bioanalysis. Blood samples (approximately 200 μL/sample) were collected via jugular vein at Pre-dose and Post-dose (5 min, 15 min, 30 min, 1 h, 2 h, 4 h, 6 h, 8 h and 24 h). Blood samples were placed into tubes containing K2EDTA and centrifuged conditions at 8000 rpm for 6 minutes at 2-8° C. to separate plasma from the samples. Following centrifugation, the resulting plasma were transferred to clean tubes and stored frozen at −80° C. pending bioanalysis.
(§5) Pharmacokinetic Analysis. The PK analysis and interpretation of the results were conducted by Medicilon Preclinical Research (Shanghai) LLC. A non-compartmental module of WinNonlin® Professional was used to calculate parameters. Any BLQs (LLOQ=10.0 ng/mL for Compound A) were omitted when calculate the PK parameters.
(§6) Clinical Observations. No abnormal observations were noted.

[2] = Pharmacokinetic profile of IUdR (20 mg/kg) with and without Tipiracil in rats following single oral administration; type: in vivo, male Sprague-Dawley rats; details: for Plasma Concentration of Compound A / concentration at 0.083 hr / concentration at 0.25 hr / concentration at 0.5 hr / concentration at 1 hr: PO-20 mg/kg Compound A alone or + 7.9 mg/kg Compound B; for concentration at 0.083 hr / concentration at 0.25 hr / concentration at 0.5 hr / concentration at 1 hr: oral; for AUC(0-t) / Cmax: po
Experimental: as §1
A control formulation was prepared where Compound A was dissolved in 5% DMSO+95% PBS to yield a final concentration of 2 mg/mL for oral administration. The prepared formulation was colorless clear solution (pH˜8).
A second formulation was prepared where Compound A and Compound B were dissolved in 5% DMSO+95% PBS to yield a final concentration of 2 mg/mL (Compound A) and 0.79 mg/mL (Compound B) for oral administration. The prepared formulation was colorless clear solution (pH˜7).
as §2, §3, §4
as §5, with “(LLOQ=5.0” for “(LLOQ=10.0”
as §6

[3] = test system: DNA of tumors and adjacent normal tissue; details: small series of patients with head and neck cancers or liver metastases from colorectal cancer; cited from earlier work
cells = details: as compared to cells without the defective DNA; cited from earlier work
[4] = single oral dose, PO-20 (Compound A) alone or + 7.9 (Compound B) mg/kg, individual animals

For `O=c1[nH]c(=O)n([C@H]2C[C@H](O)[C@@H](CO)O2)cc1I` [Compound A, 5-iodo-2′-deoxyuridine], the “AUC(0-t) of Compound A” value [1] was 2214.79 ng·h/mL and 2609.22 ng·h/mL, the “Cmax of Compound A” value [1] was 773.62 ng/mL and 755.39 ng/mL and the “Tmax of Compound A” value [1] was 120 min. For the same compound, the “Plasma Concentration of Compound A” value ([2]; 0.083 hr, individual animals, LLOQ 5 ng/mL) was 25.16 ng/mL and 16.04 ng/mL, the “Plasma Concentration of Compound A” value ([2]; 0.25 hr, individual animals, LLOQ 5 ng/mL) was 54.67 ng/mL and 56.48 ng/mL and the “Plasma Concentration of Compound A” value ([2]; 0.5 hr, individual animals, LLOQ 5 ng/mL) was 63.23 ng/mL and 57.34 ng/mL. The “Plasma Concentration of Compound A” value ([2]; 1 hr, individual animals, LLOQ 5 ng/mL) was 19.19 ng/mL and 21.93 ng/mL, the “Plasma Concentration of Compound A” value ([2]; 2 hr, individual animals, LLOQ 5 ng/mL) was “BLQ” and the “Plasma Concentration of Compound A” value ([2]; 4 hr, individual animals, LLOQ 5 ng/mL) was “BLQ”. The “Plasma Concentration of Compound A” value ([2]; 6 hr, individual animals, LLOQ 5 ng/mL) was “BLQ”, the “Plasma Concentration of Compound A” value ([2]; 8 hr, individual animals, LLOQ 5 ng/mL) was “BLQ” and the “Plasma Concentration of Compound A” value ([2]; 24 hr, individual animals, LLOQ 5 ng/mL) was “BLQ”. It also gave a Tmax ([2]; male, Sprague-Dawley, rat, plasma, 20 mg/kg, single oral dose, PO-20 (Compound A) alone or + 7.9 (Compound B) mg/kg, individual animals) of 30 min, a concentration at 0.083 hr ([2]; male, Sprague-Dawley, rat, plasma, 20 mg/kg, 0.083 hr, group mean, read-out: Plasma Concentration of Compound A, Mean) of 21.9 ng/mL and a concentration at 0.083 hr ([2]; male, Sprague-Dawley, rat, plasma, 20 mg/kg, 0.083 hr, individual animals, LLOQ 5 ng/mL, read-out: Plasma Concentration of Compound A) of 24.5 ng/mL. It also gave a concentration at 0.25 hr ([2]; male, Sprague-Dawley, rat, plasma, 20 mg/kg, 0.25 hr, group mean, read-out: Plasma Concentration of Compound A, Mean) of 49.2 ng/mL, a concentration at 0.25 hr ([2]; male, Sprague-Dawley, rat, plasma, 20 mg/kg, 0.25 hr, individual animals, LLOQ 5 ng/mL, read-out: Plasma Concentration of Compound A) of 36.5 ng/mL and a concentration at 0.5 hr ([2]; male, Sprague-Dawley, rat, plasma, 20 mg/kg, 0.5 hr, group mean, read-out: Plasma Concentration of Compound A, Mean) of 57.7 ng/mL. It also gave a concentration at 0.5 hr ([2]; male, Sprague-Dawley, rat, plasma, 20 mg/kg, 0.5 hr, individual animals, LLOQ 5 ng/mL, read-out: Plasma Concentration of Compound A) of 52.5 ng/mL, a concentration at 1 hr ([2]; male, Sprague-Dawley, rat, plasma, 20 mg/kg, 1 hr, group mean, read-out: Plasma Concentration of Compound A, Mean) of 22.8 ng/mL and a concentration at 1 hr ([2]; male, Sprague-Dawley, rat, plasma, 20 mg/kg, 1 hr, individual animals, LLOQ 5 ng/mL, read-out: Plasma Concentration of Compound A) of 27.2 ng/mL. The AUC(0-t) ([2]; male, Sprague-Dawley, rat, plasma, 20 mg/kg, oral administration, Example 2 (20 mg/kg IUdR, ± 7.9 mg/kg Tipiracil), comparison table, mean, read-out: AUC(0-t) of Compound A) was 40.3 ng·h/mL, the Cmax ([2]; male, Sprague-Dawley, rat, plasma, 20 mg/kg, oral administration, Example 2 (20 mg/kg IUdR, ± 7.9 mg/kg Tipiracil), comparison table, mean, read-out: Cmax of Compound A) was 57.7 ng/mL and the AUC(0-t) ([2]; male, Sprague-Dawley, rat, plasma, 20 mg/kg, single oral dose, PO-20 (Compound A) alone or + 7.9 (Compound B) mg/kg, group mean, read-out: AUC(0-t) of Compound A, Mean) was 40.3 ng·h/mL. The Cmax ([2]; male, Sprague-Dawley, rat, plasma, 20 mg/kg, single oral dose, PO-20 (Compound A) alone or + 7.9 (Compound B) mg/kg, group mean, read-out: Cmax of Compound A, Mean) was 57.7 ng/mL, the AUC(0-t) ([2]; male, Sprague-Dawley, rat, plasma, 20 mg/kg, single oral dose, PO-20 (Compound A) alone or + 7.9 (Compound B) mg/kg, individual animals, read-out: AUC(0-t) of Compound A) was 40.8 ng·h/mL and the Cmax ([2]; male, Sprague-Dawley, rat, plasma, 20 mg/kg, single oral dose, PO-20 (Compound A) alone or + 7.9 (Compound B) mg/kg, individual animals, read-out: Cmax of Compound A) was 57.3 ng/mL. For the same compound, the “AUC(0-t) of Compound A” value [2, 4] was 37.15 ng·h/mL and 43.05 ng·h/mL, the “Cmax of Compound A” value [2, 4] was 52.45 ng/mL and 63.23 ng/mL and the “% IUdR-DNA incorporation in adjacent normal tissue” value [3] was “less than 1%”. The “% IUdR-DNA incorporation in tumors” value [3] was no more than 5% and the “increase in susceptibility of cells to the lethal effects of RT” value (cells) was “two-three fold”.
